We go through eleven compounds from ChEMBL document CHEMBL1201862, “PubChem BioAssay data set” (2004).

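The compound was tested at five concentrations on cells cultured in 96-well plates, with a 48-hour exposure period. GI50 marks 50% less growth.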 Calls of active or inactive are those of the source. No stated cut-off is given here; in the data, active = GI50 up to about 1.1 µM and inactive = higher.

Test systems include NCI-H23; HCT-15; HOP-62; BT-549; SK-OV-3; KM12; A498; A549; MCF7; T47D; HOP-92; IGROV-1; SK-MEL-28; K562; OVCAR-4; TK-10; RPMI-8226; COLO 205; M14; NCI-H522.
Experiment in all cases: growth of human tumour cells (NCI), 48 h

As for `CC(C)(C)c1ccc2c(c1)C(=O)c1ccccc1C2=O`, the GI50 with NCI-H23 is 61.9 µM (inactive); with HCT-15, 39.7 µM; in the experiment on HOP-62, > 100 µM (inactive); in the experiment on BT-549 it was 24.8 µM (inactive); with SK-OV-3 it was > 100 µM (inactive); with KM12, 36 µM (inactive). The GI50 in the experiment on A498 was 41.3 µM (inactive); in the experiment with A549, 38.6 µM (inactive); with MCF7, 20.6 µM (inactive); in the experiment on T47D it was > 100 µM (inactive); in the experiment with HOP-92, 15.5 µM (inactive); with IGROV-1, 33 µM (inactive). In addition, the GI50 in the experiment on SK-MEL-28 is 98.2 µM (inactive); with K562 it was 58.1 µM (inactive); with OVCAR-4, 33.6 µM (inactive); in the experiment on TK-10, 86.3 µM (inactive); in the experiment on RPMI-8226, 31.3 µM (inactive); with COLO 205 it was 25 µM (inactive). For the same compound, in the experiment on M14, the GI50 was > 100 µM (inactive).

With `C[C@@]12c3c4ccc(C=O)c3Oc3ccc(C=O)c(c31)Oc1c(C=O)ccc(c12)O4`, the GI50 in the experiment on NCI-H23 is > 100 µM (inactive); in the experiment with HCT-15 it was > 100 µM; in the experiment on HOP-62, > 100 µM (inactive); in the experiment on BT-549, > 100 µM (inactive); in the experiment on SK-OV-3, > 100 µM (inactive); in the experiment with KM12, > 100 µM (inactive). For the same compound, the GI50 with A498 is 31.5 µM (inactive); with A549, > 100 µM (inactive); in the experiment with MCF7 it was > 100 µM (inactive); in the experiment on T47D, > 100 µM (inactive); in the experiment with HOP-92, 0.565 µM (active); in the experiment with IGROV-1, > 100 µM (inactive). In addition, the GI50 with SK-MEL-28, with K562, in the experiment on OVCAR-4, with TK-10, with RPMI-8226 and in the experiment on COLO 205 was > 100 µM (inactive) in each case. The GI50 in the experiment with M14 is > 100 µM (inactive).

Turning to `C=C1CN(C(=O)c2cc3cc(OC)c(OC)c(OC)c3[nH]2)c2cc([N+](=O)[O-])ccc21`, the GI50 is 65 µM (inactive) in the experiment on NCI-H23; > 100 µM with HCT-15; 61.2 µM (inactive) with BT-549; 33.2 µM (inactive) in the experiment with SK-OV-3; > 100 µM (inactive) in the experiment with KM12; 64.4 µM (inactive) with A498. For the same compound, the GI50 was > 100 µM (inactive) in the experiment with A549; > 100 µM (inactive) in the experiment with MCF7; > 100 µM (inactive) in the experiment on T47D; 33.8 µM (inactive) in the experiment with HOP-92; > 100 µM (inactive) in the experiment with IGROV-1; > 100 µM (inactive) with SK-MEL-28. Besides, the GI50 was > 100 µM (inactive) in the experiment on K562; > 100 µM (inactive) in the experiment on OVCAR-4; 26.5 µM (inactive) in the experiment on TK-10; > 100 µM (inactive) in the experiment on RPMI-8226; > 100 µM (inactive) with COLO 205; > 100 µM (inactive) in the experiment on M14.

On to `CC(=O)Nn1cnc(C(=N)C#N)c1N`, for which the GI50 with NCI-H23 is > 100 µM (inactive); in the experiment on HCT-15 it was > 100 µM; in the experiment with HOP-62, > 100 µM (inactive); in the experiment with BT-549, > 100 µM (inactive); in the experiment on SK-OV-3 it was > 100 µM (inactive); in the experiment with KM12 it was > 100 µM (inactive). The GI50 in the experiment with A498, in the experiment with A549, in the experiment with MCF7, in the experiment on T47D, in the experiment with IGROV-1 and with SK-MEL-28 was > 100 µM (inactive) in each case. Also, the GI50 with K562, in the experiment with OVCAR-4, in the experiment with TK-10, with RPMI-8226, with NCI-H522 and in the experiment with COLO 205 was > 100 µM (inactive) throughout. In the experiment with M14, the GI50 is > 100 µM (inactive).

On to `Cc1sc(N/N=C2\C(=O)Nc3ccccc32)nc1-c1ccccc1`, for which the GI50 in the experiment with NCI-H23 was 16.6 µM (inactive); with HCT-15, 9.38 µM; with HOP-62, 12 µM (inactive); with BT-549, 16.3 µM (inactive); with SK-OV-3, 14.9 µM (inactive); in the experiment with KM12, 13.6 µM (inactive). For the same compound, the GI50 is 15.1 µM (inactive) with A498; 14.8 µM (inactive) with A549; 15.3 µM (inactive) with MCF7; 13.6 µM (inactive) in the experiment on T47D; 23 µM (inactive) with HOP-92; 9.48 µM (inactive) in the experiment with IGROV-1. The GI50 with SK-MEL-28 is 17.3 µM (inactive); in the experiment on OVCAR-4 it was 13.9 µM (inactive); in the experiment with TK-10, 23.8 µM (inactive); with COLO 205, 13.4 µM (inactive); with M14, 16 µM (inactive).

`CCOc1nnnc2[nH]cnc12`: the GI50 is > 100 µM (inactive) in the experiment with NCI-H23; > 100 µM in the experiment on HCT-15; > 100 µM (inactive) in the experiment with HOP-62; > 100 µM (inactive) in the experiment on BT-549; > 100 µM (inactive) with SK-OV-3; > 100 µM (inactive) in the experiment with KM12. Moreover, the GI50 in the experiment with A498, in the experiment on A549, with MCF7, in the experiment on T47D, with IGROV-1 and in the experiment with SK-MEL-28 was > 100 µM (inactive) each time. Besides, the GI50 in the experiment with OVCAR-4, in the experiment on TK-10, in the experiment with RPMI-8226, with NCI-H522, in the experiment on COLO 205 and in the experiment on M14 was > 100 µM (inactive) throughout.

With `O=C1c2ccccc2-c2c1c(-c1ccc([N+](=O)[O-])cc1)nc1ccc3ccccc3c21`, the GI50 is > 100 µM (inactive) in the experiment with NCI-H23; > 100 µM in the experiment with HCT-15; > 100 µM (inactive) in the experiment on HOP-62; > 100 µM (inactive) in the experiment with BT-549; > 100 µM (inactive) in the experiment with SK-OV-3; > 100 µM (inactive) in the experiment with KM12. Besides, the GI50 with A498, in the experiment with A549, with MCF7, with T47D, with SK-MEL-28 and in the experiment with K562 was > 100 µM (inactive) each time. For the same compound, the GI50 in the experiment on OVCAR-4, with RPMI-8226, in the experiment on COLO 205 and in the experiment on M14 was > 100 µM (inactive) each time.

As to `COc1ccc(/C(=N/OCCCC(=O)O)c2cccs2)cc1`, the GI50 in the experiment with NCI-H23 was > 100 µM (inactive); in the experiment on HCT-15 it was > 100 µM; in the experiment on HOP-62, > 100 µM (inactive); in the experiment on BT-549, > 100 µM (inactive); in the experiment with SK-OV-3 it was > 100 µM (inactive); with KM12, > 100 µM (inactive). Also, the GI50 in the experiment with A498, in the experiment on A549, in the experiment on MCF7, with T47D, in the experiment on HOP-92 and in the experiment on K562 was > 100 µM (inactive) each time. In addition, the GI50 with OVCAR-4, in the experiment on TK-10, with RPMI-8226 and in the experiment on COLO 205 was > 100 µM (inactive) each time.

As for `CCS(=O)(=O)CCn1cnc2c1c(=O)n(C)c(=O)n2C`, the GI50 in the experiment with NCI-H23 is > 100 µM (inactive); with HCT-15 it was > 100 µM; with HOP-62 it was > 100 µM (inactive); in the experiment on BT-549 it was > 100 µM (inactive); in the experiment with KM12 it was > 100 µM (inactive); in the experiment with A498, > 100 µM (inactive). Moreover, the GI50 with A549, with MCF7, in the experiment with T47D, in the experiment on HOP-92, in the experiment on IGROV-1 and with SK-MEL-28 was > 100 µM (inactive) in each case. In addition, the GI50 in the experiment on K562, with OVCAR-4, with TK-10, in the experiment on NCI-H522, in the experiment on COLO 205 and in the experiment on M14 was > 100 µM (inactive) throughout.

With `CCOc1cc(NC(C)=O)ccc1C(=O)NN1C(=O)/C(=C/c2ccc(Cl)cc2)N=C1c1ccccc1`, the GI50 with NCI-H23 is 41.6 µM (inactive); with HCT-15, 35.6 µM; with HOP-62 it was 44.9 µM (inactive); with BT-549, 47.4 µM (inactive); with SK-OV-3, > 100 µM (inactive); with KM12 it was 34.3 µM (inactive). Further, the GI50 in the experiment on A498 was 24.9 µM (inactive); with A549, 37.8 µM (inactive); in the experiment on MCF7, 4.67 µM (inactive); in the experiment with T47D, 13.2 µM (inactive); in the experiment on HOP-92 it was 33.9 µM (inactive); with IGROV-1 it was 18.1 µM (inactive). Also, the GI50 with SK-MEL-28 was > 100 µM (inactive); with K562, 35.2 µM (inactive); in the experiment on OVCAR-4 it was 22.3 µM (inactive); in the experiment on TK-10, 49.1 µM (inactive); in the experiment with RPMI-8226 it was 25.9 µM (inactive); with COLO 205, 33.7 µM (inactive). Also, the GI50 in the experiment with M14 is 48.5 µM (inactive).

For the compound `CN(C)Cc1cc(C(=O)/C=C/c2ccccc2Cl)cc(CN(C)C)c1O`, the GI50 was 14.5 µM (inactive) in the experiment with NCI-H23; 14.7 µM in the experiment on HCT-15; 8.15 µM (inactive) with HOP-62; 8.51 µM (inactive) in the experiment with BT-549; 7.8 µM (inactive) with KM12; 12.9 µM (inactive) in the experiment on A498. The GI50 in the experiment on A549 was 14.9 µM (inactive); in the experiment on MCF7 it was 9.66 µM (inactive); with T47D, > 10 µM (inactive); in the experiment on HOP-92 it was 18.1 µM (inactive); with IGROV-1 it was 13.6 µM (inactive); with SK-MEL-28, 14.7 µM (inactive). Also, the GI50 in the experiment on K562 was 4.79 µM (inactive); in the experiment on TK-10, 19.7 µM (inactive); in the experiment on RPMI-8226 it was 13.8 µM (inactive); with NCI-H522, 3.93 µM (inactive); with COLO 205, 4.23 µM (inactive); in the experiment on M14, 11.2 µM (inactive).
